System: subjects with PAH
Assay: Example 2 (ARIES-1) placebo-controlled Phase III trial, efficacy
Type: in vivo, human
Details: for Clinical worsening event: Atrial septostomy / Clinical worsening event: Death / Clinical worsening event: Escape criteria / Clinical worsening event: Hospitalization for PAH / Clinical worsening event: Lung transplantation / Clinical worsening event: Study discontinuation due to addition of PAH treatment / Clinical worsening: Total subjects with ≧1 event / subjects hospitalized for worsening right heart failure / subjects who had an event of clinical worsening: 12 weeks; for Change in 6MWD from baseline to Week 12, mean: ITT population; for geometric mean percent change in plasma BNP, decrease from baseline / geometric mean percent change in plasma ET-1, increase from baseline: Week 12
Method: The primary objective of this study was to determine the effect of ambrisentan on exercise capacity in subjects with pulmonary arterial hypertension (PAH). The secondary objectives of this study were to evaluate effects of ambrisentan on other clinical measures of PAH, as well as safety and tolerability of the study drug.
Study drug was provided in round, biconvex, oral tablets that were identical in appearance. Three strengths of active study drug containing 2.5 mg, 5 mg or 10 mg of ambrisentan were used in this study. All study drug was packaged in blister cards. Subjects were instructed to take study drug once daily (q.d.) by mouth (p.o.) in the morning, with or without food.
The maximum study duration was up to 14 weeks from the time of initial screening procedures to the final study visit (Week 12). Screening procedures were performed a maximum of 2 weeks prior to the first dose of study drug. The maximum duration of study drug treatment was 12 weeks.
Men and women, 18 years of age or older, with idiopathic PAH, PAH associated with CTD, e.g., mixed CTD, CREST syndrome, systemic sclerosis (scleroderma), overlap syndrome or systemic lupus erythematosus, or PAH associated with anorexigen use or HIV infection were enrolled in this study. Subjects were to have a documented mean PAP≧25 mmHg, PVR>3 mmHgL/min, and PCWP or LVEDP<15 mmHg. Subjects must have been able to walk a distance of at least 150 m but no more than 450 m during 2 consecutive 6MWTs to be eligible for inclusion in the study.
After a 2 week screening period, eligible subjects were stratified based on the underlying etiology of PAH (idiopathic or non-idiopathic) and were randomized to 1 of 3 treatment groups (placebo, 5 mg or 10 mg ambrisentan) in a ratio of 1:1:1. One blinded dose reduction was permitted during the 12-week treatment period in the event of study drug intolerance (e.g., 10 mg to 5 mg, 5 mg to 2.5 mg, placebo to placebo). Subjects received a daily dose of 2.5 mg ambrisentan only if they reduced from the 5 mg dose group. Subjects were assessed for efficacy and safety at monthly intervals.
Therefore, after a minimum treatment period of 4 weeks, subjects who met 2 or more of the following predefined early escape criteria may have been removed from the study: • (a) a decrease from baseline of at least 20% in 6MWD; • (b) an increase of 1 or more WHO functional class; • (c) worsening right ventricular failure (e.g., as indicated by increased jugular venous pressure, new or worsening hepatomegaly, ascites or peripheral edema); • (d) rapidly progressing cardiogenic, hepatic or renal failure; and/or • (e) refractory systolic hypotension (systolic blood pressure <85 mmHg).
The primary efficacy endpoint was change from baseline in 6MWD evaluated after 12 weeks of treatment compared to placebo.
The secondary efficacy endpoints included: • (a) time to clinical worsening of PAH, as defined by the time from randomization to the first occurrence of death, lung transplantation, hospitalization for PAH, atrial septostomy, study discontinuation due to addition of other PAH therapeutic agents, or study discontinuation due to 2 or more early escape criteria; • (b) change from baseline measured after 12 weeks of treatment compared to placebo in: • (i) WHO functional class; • (ii) SF-36® health survey physical functioning scale; • (iii) BDI immediately following exercise; and/or • (iv) an assessment of the safety and tolerability of the study drug; and • (c) change from baseline measured after 12 weeks of treatment compared to placebo in plasma levels of ET-1, BNP and cTnT. Safety Assessments
For the ITT population, subjects were considered as belonging to their randomized treatment group, regardless of the actual treatment received.
The primary efficacy endpoint was the change from baseline in 6MWD evaluated after 12 weeks of treatment compared to placebo, where the last observation was carried forward. […]

[1] = 5 mg once daily, baseline to Week 12
[2] = 10 mg once daily, baseline to Week 12

With `COC(c1ccccc1)(c1ccccc1)[C@H](Oc1nc(C)cc(C)n1)C(=O)O` [ambrisentan] the “placebo-adjusted improvement in mean 6MWD at Week 12” value (5 mg once daily) was “+30.6 m”, the “subjects at least maintaining their baseline WHO functional class at Week 12” value (5 mg once daily) was 98.5% and the “Clinical worsening event: Atrial septostomy” value (5 mg once daily) was 0 (0.0) subjects (% of ITT population). For the same compound, the “Clinical worsening event: Death” value (5 mg once daily) was 1 (1.5) subjects (% of ITT population), the “Clinical worsening event: Escape criteria” value (5 mg once daily) was 0 (0.0) subjects (% of ITT population) and the “Clinical worsening event: Hospitalization for PAH” value (5 mg once daily) was 2 (3.0) subjects (% of ITT population). The “Clinical worsening event: Lung transplantation” value (5 mg once daily) was 0 (0.0) subjects (% of ITT population), the “Clinical worsening event: Study discontinuation due to addition of PAH treatment” value (5 mg once daily) was 0 (0.0) subjects (% of ITT population) and the “Clinical worsening: Total subjects with ≧1 event” value (5 mg once daily) was 3 (4.5) subjects (% of ITT population). For the same compound, the “subjects hospitalized for worsening right heart failure” value (5 mg once daily) was 1 subjects, the “subjects who had an event of clinical worsening” value (5 mg once daily) was 3 subjects and the “Change in 6MWD from baseline to Week 12, mean” value (5 mg once daily) was “+22.8 meters”. For the same compound, the “geometric mean percent change in plasma BNP, decrease from baseline” value (5 mg once daily) was 30%, the “geometric mean percent change in plasma ET-1, increase from baseline” value (5 mg once daily) was 96% and the “Change in SF-36 Bodily pain, mean (SD)” value [1] was −1.43 ± 13.21. The “Change in SF-36 General health, mean (SD)” value [1] was “+0.08 ± 8.45”, the “Change in SF-36 Mental component summary, mean (SD)” value [1] was “+0.50 ± 10.50” and the “Change in SF-36 Mental health, mean (SD)” value [1] was “+0.81 ± 9.67”. The “Change in SF-36 Physical component summary, mean (SD)” value [1] was “+1.88 ± 8.68”, the “Change in SF-36 Physical functioning, mean (SD)” value [1] was “+3.86 ± 7.14” and the “Change in SF-36 Role-emotional, mean (SD)” value [1] was “+1.41 ± 13.95”. The “Change in SF-36 Role-physical, mean (SD)” value [1] was “+4.22 ± 10.52”, the “Change in SF-36 Social functioning, mean (SD)” value [1] was “+1.11 ± 13.63” and the “Change in SF-36 Vitality, mean (SD)” value [1] was “+2.38 ± 10.06”. The “Change in WHO functional class: +1 class” value [1] was 1 (1.5) subjects (% of ITT population), the “Change in WHO functional class: +2 classes” value [1] was 0 (0.0) subjects (% of ITT population) and the “Change in WHO functional class: no change” value [1] was 47 (70.1) subjects (% of ITT population). For the same compound, the “Change in WHO functional class: −1 class” value [1] was 18 (26.9) subjects (% of ITT population), the “Change in WHO functional class: −2 classes” value [1] was 1 (1.5) subjects (% of ITT population) and the “placebo-adjusted improvement in mean 6MWD at Week 12” value (10 mg once daily) was “+51.4 m”. For the same compound, the “subjects at least maintaining their baseline WHO functional class at Week 12” value (10 mg once daily) was 95.5%, the “Clinical worsening event: Atrial septostomy” value (10 mg once daily) was 0 (0.0) subjects (% of ITT population) and the “Clinical worsening event: Death” value (10 mg once daily) was 1 (1.5) subjects (% of ITT population). For the same compound, the “Clinical worsening event: Escape criteria” value (10 mg once daily) was 2 (3.0) subjects (% of ITT population), the “Clinical worsening event: Hospitalization for PAH” value (10 mg once daily) was 2 (3.0) subjects (% of ITT population) and the “Clinical worsening event: Lung transplantation” value (10 mg once daily) was 0 (0.0) subjects (% of ITT population). The “Clinical worsening event: Study discontinuation due to addition of PAH treatment” value (10 mg once daily) was 1 (1.5) subjects (% of ITT population), the “Clinical worsening: Total subjects with ≧1 event” value (10 mg once daily) was 3 (4.5) subjects (% of ITT population) and the “subjects hospitalized for worsening right heart failure” value (10 mg once daily) was 1 subjects. The “subjects who had an event of clinical worsening” value (10 mg once daily) was 3 subjects, the “Change in 6MWD from baseline to Week 12, mean” value (10 mg once daily) was “+43.6 meters” and the “geometric mean percent change in plasma BNP, decrease from baseline” value (10 mg once daily) was 45%. The “geometric mean percent change in plasma ET-1, increase from baseline” value (10 mg once daily) was 48%, the “Change in SF-36 Bodily pain, mean (SD)” value [2] was “+2.26 ± 12.22” and the “Change in SF-36 General health, mean (SD)” value [2] was “+3.25 ± 8.81”. For the same compound, the “Change in SF-36 Mental component summary, mean (SD)” value [2] was “+2.11 ± 13.17”, the “Change in SF-36 Mental health, mean (SD)” value [2] was “+1.55 ± 12.66” and the “Change in SF-36 Physical component summary, mean (SD)” value [2] was “+4.79 ± 7.90”. For the same compound, the “Change in SF-36 Physical functioning, mean (SD)” value [2] was “+4.52 ± 7.16”, the “Change in SF-36 Role-emotional, mean (SD)” value [2] was “+2.98 ± 17.37” and the “Change in SF-36 Role-physical, mean (SD)” value [2] was “+6.67 ± 10.35”.
